Laboratory results from the supplement of paper PMC6045584.
± gives the standard deviation of the averaged measurements.

What was measured:
[1] = compound: CCc1cc(Nc2nccc(-c3c(-c4ccc(OC)c(C(=O)Nc5c(F)cccc5F)c4)nc4ccccn34)n2)c(OC)cc1N1CCC(N2CCN(S(C)(=O)=O)CC2)CC1; assay: surviving fraction relative to DMSO-only wells; higher = less growth inhibition; details: exposure time: 5 days
In short: (§1)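 Inhibitors at 0.5, 1, 5, 10, 50, 100, 500 and 1000 nM were applied continuously for five days to tumour cell lines seeded in log phase at 250–500 cells per well in 384-well plates 24 hours earlier. Viability was measured by CellTiter-Glo luminescence and expressed as surviving fraction relative to the median of DMSO-only wells. Luminescence was taken after 10 minutes at room temperature.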

[2] = compound: C[C@H](CN(C)C)Oc1nc(Nc2cc3cccc(Cl)c3cn2)cnc1C#N; assay: as above; details: exposure time: 5 days
In short: as §1

| Test System | surviving fraction ([1]; 0.5 nM) | surviving fraction ([1]; 1 nM) | surviving fraction ([1]; 5 nM) | surviving fraction ([1]; 10 nM) | surviving fraction ([1]; 50 nM) | surviving fraction ([1]; 100 nM) | surviving fraction ([1]; 500 nM) | surviving fraction ([1]; 1000 nM) | surviving fraction ([2]; 0.5 nM) | surviving fraction ([2]; 1 nM) | surviving fraction ([2]; 5 nM) | surviving fraction ([2]; 10 nM) | surviving fraction ([2]; 50 nM) | surviving fraction ([2]; 100 nM) | surviving fraction ([2]; 500 nM) | surviving fraction ([2]; 1000 nM) |
| --- | --- | --- | --- | --- | --- | --- | --- | --- | --- | --- | --- | --- | --- | --- | --- | --- |
| SCC36 HEADNECK | 0.967 ± 0.035 | 1.04 ± 0.096 | 1.11 ± 0.091 | 1.1 ± 0.072 | 1.07 ± 0.027 | 1.09 ± 0.078 | 0.887 ± 0.03 | 0.791 ± 0.024 | 1.05 ± 0.03 | 1.07 ± 0.038 | 0.991 ± 0.065 | 1.15 ± 0.055 | 1.07 ± 0.041 | 1.13 ± 0.042 | 0.427 ± 0.053 | 0.313 ± 0.017 |
| SCC47 HEADNECK | 0.99 ± 0.038 | 0.992 ± 0.047 | 1.05 ± 0.047 | 1.06 ± 0.021 | 1 ± 0.075 | 1.08 ± 0.038 | 1.04 ± 0.028 | 1.03 ± 0.04 | 1.06 ± 0.052 | 1.06 ± 0.091 | 1.06 ± 0.065 | 1.11 ± 0.054 | 1.14 ± 0.059 | 1.12 ± 0.1 | 0.671 ± 0.049 | 0.925 ± 0.0085 |
| SCC90 HEADNECK | 1 ± 0.084 | 1.01 ± 0.11 | 1.02 ± 0.052 | 1.1 ± 0.023 | 1.02 ± 0.046 | 1.12 ± 0.21 | 1.06 ± 0.23 | 1.14 ± 0.046 | 1.05 ± 0.08 | 1.02 ± 0.082 | 1.02 ± 0.09 | 0.936 ± 0.1 | 0.991 ± 0.038 | 0.911 ± 0.034 | 0.189 ± 0.03 | 0.215 ± 0.021 |
| SG27 HEADNECK | 1.04 ± 0.066 | 0.999 ± 0.11 | 1.06 ± 0.065 | 1.13 ± 0.057 | 1.05 ± 0.065 | 1.17 ± 0.19 | 1.2 ± 0.034 | 1.15 ± 0.071 | 1.14 ± 0.17 | 0.995 ± 0.085 | 1.11 ± 0.12 | 0.997 ± 0.04 | 1.1 ± 0.028 | 1.03 ± 0.065 | 1.16 ± 0.062 | 1.15 ± 0.097 |
| SG28 HEADNECK | 1.01 ± 0.085 | 1.09 ± 0.099 | 1.04 ± 0.099 | 1.07 ± 0.082 | 1.1 ± 0.1 | 1.04 ± 0.041 | 1.22 ± 0.07 | 1.21 ± 0.061 | 1.02 ± 0.033 | 1.15 ± 0.033 | 0.996 ± 0.05 | 1.09 ± 0.19 | 1.04 ± 0.069 | 1.22 ± 0.31 | 1.11 ± 0.018 | 0.959 ± 0.18 |
| SG31 HEADNECK | 0.923 ± 0.036 | 1.08 ± 0.23 | 1.04 ± 0.2 | 0.903 ± 0.099 | 1.04 ± 0.14 | 1.14 ± 0.2 | 1.08 ± 0.26 | 1.1 ± 0.086 | 1.04 ± 0.091 | 1.08 ± 0.072 | 1.1 ± 0.28 | 1.07 ± 0.12 | 1.07 ± 0.16 | 1.07 ± 0.11 | 0.982 ± 0.14 | 0.967 ± 0.032 |
| SG32 HEADNECK | 1.07 ± 0.22 | 1.11 ± 0.026 | 1.15 ± 0.089 | 1.17 ± 0.15 | 1.15 ± 0.23 | 1.21 ± 0.1 | 1.6 ± 0.59 | 1.15 ± 0.017 | 1.17 ± 0.16 | 1.16 ± 0.24 | 1.06 ± 0.078 | 1.03 ± 0.1 | 1.05 ± 0.081 | 1.16 ± 0.23 | 0.748 ± 0.066 | 0.653 ± 0.11 |
| SG43 HEADNECK | 1.18 ± 0.18 | 1.1 ± 0.26 | 0.948 ± 0.15 | 0.985 ± 0.15 | 1.13 ± 0.046 | 0.908 ± 0.12 | 1.38 ± 0.024 | 1.25 ± 0.3 | 0.863 ± 0.068 | 0.929 ± 0.058 | 0.961 ± 0.13 | 0.933 ± 0.091 | 0.729 ± 0.078 | 0.585 ± 0.08 | 0.692 ± 0.082 | 0.91 ± 0.18 |
| SIHA CERVIX | 1.01 ± 0.019 | 1.04 ± 0.071 | 1.06 ± 0.055 | 1.11 ± 0.046 | 1.05 ± 0.084 | 1.18 ± 0.053 | 1.02 ± 0.037 | 1.09 ± 0.034 | 0.955 ± 0.041 | 0.981 ± 0.033 | 1.06 ± 0.037 | 1.05 ± 0.061 | 1.16 ± 0.014 | 1.11 ± 0.1 | 0.95 ± 0.092 | 1 ± 0.033 |
| SJSA1 BONE | 1.03 ± 0.038 | 0.99 ± 0.056 | 1.08 ± 0.066 | 1.1 ± 0.065 | 1.07 ± 0.013 | 1.09 ± 0.024 | 1.03 ± 0.056 | 1.03 ± 0.013 | 1.49 ± 0.044 | 1.65 ± 0.083 | 1.6 ± 0.17 | 1.57 ± 0.02 | 1.63 ± 0.14 | 1.74 ± 0.039 | 1.63 ± 0.2 | 1.69 ± 0.082 |
| SKBR3 BREAST | 1.04 ± 0.12 | 1.06 ± 0.18 | 1.05 ± 0.057 | 0.99 ± 0.089 | 0.983 ± 0.13 | 1.01 ± 0.099 | 0.849 ± 0.082 | 0.664 ± 0.048 | 1.04 ± 0.066 | 0.967 ± 0.066 | 0.881 ± 0.058 | 0.843 ± 0.063 | 1.06 ± 0.061 | 0.91 ± 0.18 | 0.667 ± 0.08 | 0.344 ± 0.019 |
| SNU475 LIVER | 0.88 ± 0.066 | 0.966 ± 0.042 | 0.982 ± 0.024 | 0.976 ± 0.062 | 0.982 ± 0.025 | 0.956 ± 0.023 | 0.957 ± 0.054 | 0.875 ± 0.061 | 0.989 ± 0.036 | 1.03 ± 0.019 | 1 ± 0.039 | 1.037 ± 0.005 | 1.02 ± 0.044 | 0.972 ± 0.04 | 0.968 ± 0.024 | 0.918 ± 0.024 |
| SUM44 BREAST | 1.07 ± 0.041 | 1.04 ± 0.015 | 1.06 ± 0.037 | 1.07 ± 0.023 | 1.07 ± 0.062 | 1.155 ± 0.0075 | 0.9687 ± 0.0055 | 0.994 ± 0.034 | 1.14 ± 0.37 | 1.16 ± 0.3 | 1.24 ± 0.33 | 1.29 ± 0.47 | 1.23 ± 0.4 | 0.918 ± 0.25 | 0.284 ± 0.056 | 0.268 ± 0.066 |
| SUM149 BREAST | 1.07 ± 0.059 | 1.14 ± 0.027 | 1.09 ± 0.035 | 1.12 ± 0.037 | 1.06 ± 0.14 | 1.11 ± 0.13 | 1.08 ± 0.081 | 1.05 ± 0.12 | 1.04 ± 0.091 | 1.02 ± 0.083 | 0.988 ± 0.086 | 1.07 ± 0.017 | 0.903 ± 0.07 | 0.836 ± 0.024 | 0.192 ± 0.0025 | 0.0843 ± 0.011 |
| SUM149.B1*.S BREAST | 0.994 ± 0.024 | 1.05 ± 0.033 | 1.05 ± 0.051 | 1.1 ± 0.02 | 1.01 ± 0.047 | 1.081 ± 0.01 | 1.05 ± 0.082 | 1.04 ± 0.048 | 1.06 ± 0.066 | 1.06 ± 0.023 | 1.03 ± 0.055 | 1.09 ± 0.029 | 1.11 ± 0.029 | 1.05 ± 0.029 | 0.941 ± 0.026 | 0.492 ± 0.024 |
| SUM159 BREAST | 1.1 ± 0.27 | 1.17 ± 0.28 | 1.15 ± 0.24 | 1.14 ± 0.2 | 1.11 ± 0.21 | 1.12 ± 0.19 | 1.07 ± 0.14 | 1.08 ± 0.18 | 1.04 ± 0.038 | 1.06 ± 0.034 | 1.05 ± 0.03 | 1.05 ± 0.033 | 1.06 ± 0.024 | 1.05 ± 0.024 | 1.03 ± 0.02 | 0.986 ± 0.0078 |
